Our source for the Kd values is article PMC10837130, “ATP-dependent conformational dynamics in a photoactivated adenylate cyclase revealed by fluorescence spectroscopy and small-angle X-ray scattering” (Communications Biology, 2024).

Type in all cases: binding
Assay [1] addresses T1, OaPAC (photoactivated adenylate cyclase) (Oxynema acuminatum, UniProt K9TLZ5).
T1 sequence (K9TLZ5 1-366): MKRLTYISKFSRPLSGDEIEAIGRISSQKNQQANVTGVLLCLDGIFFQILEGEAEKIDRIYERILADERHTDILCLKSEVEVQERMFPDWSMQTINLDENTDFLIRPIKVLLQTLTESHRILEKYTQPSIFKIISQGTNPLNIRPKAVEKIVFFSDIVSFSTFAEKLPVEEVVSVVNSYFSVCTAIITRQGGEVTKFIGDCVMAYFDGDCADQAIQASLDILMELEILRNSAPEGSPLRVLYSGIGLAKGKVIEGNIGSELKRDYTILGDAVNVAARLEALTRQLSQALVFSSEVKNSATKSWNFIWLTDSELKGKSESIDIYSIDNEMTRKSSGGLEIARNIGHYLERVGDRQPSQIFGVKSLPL
The experiment in a line: ITC (also nanoDSF, SAXS titration, CD). Also on record: gene Oscil6304_3613; Full-length OaPAC (366 aa, homodimer), dark-adapted state. Background: DSF heats the sample and reads unfolding from a dye or from intrinsic fluorescence.

Assay [2] has as its target T1, OaPAC (photoactivated adenylate cyclase). The experiment in a line: ITC (also nanoDSF, DSC, flavin-emission thermal shift, SAXS). Also on record: gene Oscil6304_3613; Full-length OaPAC (366 aa, homodimer), dark-adapted state.
Assay [3] shares this target. The experiment in a line: steady-state fluorescence anisotropy; stopped-flow fluorescence (KD […]). On the set-up: gene Oscil6304_3613; Full-length OaPAC (366 aa, homodimer). (Polarisation of emitted light reports the rotation of a fluorescent probe.)

Take `Nc1ncnc2c1ncn2[C@@H]1O[C@H](COP(=O)(O)OP(=O)(O)OP(=O)(O)O)[C@@H](O)[C@H]1O` [ATP]: binding in assay [1] was put at a Kd of 3.24 ± 1.9 µM. Take `Nc1ncnc2c1ncn2[C@@H]1O[C@H](COP(=O)(O)CP(=O)(O)OP(=O)(O)O)[C@@H](O)[C@H]1O` [ApCpp, Adenosine-5’-[(α,β)-methyleno]triphosphate]: the Kd (commonly the constant that tells how readily two partners part at equilibrium) in assay [2] came out at 5.92 ± 5.06 µM. As to `CNc1ccccc1C(=O)O[C@H]1[C@@H](O)[C@H](n2cnc3c(N)ncnc32)O[C@@H]1CO[P@@](=O)(O)O[P@](=O)(O)OP(=O)(O)O` [mantATP], binding in assay [3] was put at a Kd of 2.25 ± 0.4 µM.
